Drawing on US20250361210A1, “3,4-DIHYDROQUINOLIN-2(1H)-ONE COMPOUND” (Kissei Pharmaceutical Co., Ltd., priority 2022, published 2025), this text covers IC50 for 37 molecules.

The target in this experiment is T1, human TSHR (Homo sapiens, UniProt P16473).
T1 construct: expressed in transfected cells
T1 sequence (P16473 21-764): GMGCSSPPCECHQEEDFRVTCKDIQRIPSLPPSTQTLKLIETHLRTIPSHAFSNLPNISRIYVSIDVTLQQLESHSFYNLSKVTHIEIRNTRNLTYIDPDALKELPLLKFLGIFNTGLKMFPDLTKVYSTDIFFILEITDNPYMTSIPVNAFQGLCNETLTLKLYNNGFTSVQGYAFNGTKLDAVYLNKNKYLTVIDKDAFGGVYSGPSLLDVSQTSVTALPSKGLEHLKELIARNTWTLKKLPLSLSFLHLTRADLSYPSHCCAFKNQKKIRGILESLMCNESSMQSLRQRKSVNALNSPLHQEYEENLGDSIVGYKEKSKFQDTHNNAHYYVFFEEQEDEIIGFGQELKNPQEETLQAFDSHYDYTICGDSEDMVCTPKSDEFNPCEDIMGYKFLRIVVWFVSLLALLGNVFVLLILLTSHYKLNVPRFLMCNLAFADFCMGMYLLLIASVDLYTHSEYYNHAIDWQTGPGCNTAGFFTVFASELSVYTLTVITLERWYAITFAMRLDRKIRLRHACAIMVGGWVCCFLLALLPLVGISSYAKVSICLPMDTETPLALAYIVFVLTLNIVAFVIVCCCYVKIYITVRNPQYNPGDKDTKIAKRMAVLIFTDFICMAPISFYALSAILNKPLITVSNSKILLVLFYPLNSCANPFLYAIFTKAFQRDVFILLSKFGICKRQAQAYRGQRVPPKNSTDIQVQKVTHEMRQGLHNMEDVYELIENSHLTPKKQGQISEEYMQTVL
Description: Antagonist activity using TSH-induced cAMP production in human TSHR-stably expressing CHO cells. It counts as cell-based. The conditions noted are these: human TSH 50 ng/mL. The procedure:
Measurement of Antagonist Activity Using TSH-Induced cAMP Production in Human TSHR-Stably Expressing CHO Cells as an Indicator
The human TSHR gene sequence (reference number NM_000369.2) was inserted into the multicloning site of pcDNA3.1(+). The constructed plasmid vector was introduced into CHO cells using the lipofection method to establish human TSHR-stably expressing CHO cells. The obtained cells were seeded at 5×10^4 cells/well in a 96-well poly-D-lysine-coated plate, and cultured in an F12 culture medium containing 10% FBS, 400 μg/mL of G418, 50 U/mL of penicillin and 50 μg/mL of streptomycin under conditions of 37° C. and 5% CO2 for 1 day. After the culture medium was removed, the cells were washed twice with 100 μL of an assay buffer solution (Hanks' Balanced Salt Solution containing 20 mM HEPES and 1 mM IBMX) per well. 30 μL of a test compound-containing assay buffer solution was added to the well and incubated at room temperature for 15 minutes. Then, 30 μL of an assay buffer solution containing human TSH (final concentration 50 ng/mL, R&D Systems, Inc.) was added, and incubated at 37° C. for 1 hour. The supernatant was removed, a Lysis and Detection Buffer 2 (Cisbio) was added, and the mixture was incubated at room temperature for 1 hour to prepare a cell lysate. According to the instruction manual of a cAMP Gs HiRange kit (Cisbio), the cell lysate, d2-labeled cAMP and anti-cAMP Europium Cryptate labeled antibodies (Cisbio) were reacted in a 384-well white microplate. Then, a fluorescence intensity ratio (measurement wavelength 665 nm/620 nm) was measured using a multi-plate reader (PHERAstar FSX, BMG LABTECH, Japan). The fluorescence intensity ratio of each sample was converted to a cAMP content using a standard curve. The cAMP content was converted as a percentage of the control value to calculate the cAMP production rate. The CAMP production rate was plotted against the test compound concentration using Prism (Graph Pad Software Inc.) to calculate the IC50 value. The IC50 of each test compound is shown in the above tables. In the tables, IC50<0.5 μM: A, 0.5 μM≤IC50<3.0 μM: B, 3.0 μM≤IC50<30 μM: C are shown.
With `Cc1ccc2c(c1Oc1cc(F)ccc1F)N(C)C(=O)[C@H](NC(N)=O)C2` [Example 50, ((3R)-8-(2,5-difluorophenoxy)-1,7-dimethyl-2-oxo-1,2,3,4-tetrahydroquinolin-3-yl)urea], the IC50 was < 500 nM.
For the molecule `CCc1ccccc1Oc1cccc2c1N(C)C(=O)[C@H](NC(N)=O)C2` [Example 14], the IC50 was in the range of 500 to 3000 nM.
Take `Cc1ccc2c(c1Cc1ccccc1Cl)N(C)C(=O)[C@H](NC(N)=O)C2` [Example 58, ((3R)-8-((2-chlorophenyl)methyl)-1,7-dimethyl-2-oxo-1,2,3,4-tetrahydroquinolin-3-yl)urea]: the IC50 was < 500 nM.
As to `CN1C(=O)[C@H](NC(N)=O)Cc2ccc(Cl)c(Oc3cc(F)ccc3Cl)c21` [Example 37, ((3R)-7-chloro-8-(2-chloro-5-fluorophenoxy)-1-methyl-2-oxo-1,2,3,4-tetrahydroquinolin-3-yl)urea], the IC50 is < 500 nM.
For `CN1C(=O)[C@H](NC(N)=O)Cc2ccc(O)c(Oc3ccccc3Cl)c21` [Example 33, ((3R)-8-(2-chlorophenoxy)-7-hydroxy-1-methyl-2-oxo-1,2,3,4-tetrahydroquinolin-3-yl)urea], the IC50 fell in the range of 500 to 3000 nM.
For `CN1C(=O)[C@H](NC(N)=O)Cc2ccc(Cl)c(Oc3cc(F)ccc3F)c21` [Example 69, ((3R)-7-chloro-8-(2,5-difluorophenoxy)-1-methyl-2-oxo-1,2,3,4-tetrahydroquinolin-3-yl)urea] the value was < 500 nM; for `COc1cccc(Oc2cccc3c2N(C)C(=O)[C@H](NC(N)=O)C3)c1` [Example 13], 500 to 3000 nM; for `CN1C(=O)[C@H](NC(N)=O)Cc2ccc(Cl)c(Oc3cccc(F)c3)c21` [Example 26, ((3R)-7-chloro-8-(3-fluorophenoxy)-1-methyl-2-oxo-1,2,3,4-tetrahydroquinolin-3-yl)urea], < 500 nM.
The value for `Cc1ccccc1Cc1cccc2c1N(C)C(=O)[C@H](NC(N)=O)C2` [Example 54, ((3R)-1-methyl-8-((2-methylphenyl)methyl)-2-oxo-1,2,3,4-tetrahydroquinolin-3-yl)urea] was < 500 nM; that for `CN1C(=O)[C@H](NC(N)=O)Cc2ccc(CO)c(Oc3cc(F)ccc3Cl)c21` [Example 71, ((3R)-8-(2-chloro-5-fluorophenoxy)-7-(hydroxymethyl)-1-methyl-2-oxo-1,2,3,4-tetrahydroquinolin-3-yl)urea] was < 500 nM; that for `CN1C(=O)[C@H](NC(N)=O)Cc2cccc(Oc3ccc(F)cc3Cl)c21` [Example 20, ((3R)-8-(2-chloro-4-fluorophenoxy)-1-methyl-2-oxo-1,2,3,4-tetrahydroquinolin-3-yl)urea] was < 500 nM.
`CN1C(=O)[C@H](NC(N)=O)Cc2cccc(OC3CCCCC3)c21` [Example 41] registered an IC50 of 500 to 3000 nM.
The value for `CN1C(=O)[C@H](NC(N)=O)Cc2ccc(Cl)c(Oc3ccccc3F)c21` [Example 23, ((3R)-7-chloro-8-(2-fluorophenoxy)-1-methyl-2-oxo-1,2,3,4-tetrahydroquinolin-3-yl)urea] was < 500 nM.
For `Cc1ccc2c(c1Oc1cc(F)ccc1Cl)N(C)C(=O)[C@H](NC(=O)C1CC1)C2` [Example 82] the value was < 500 nM; for `CCc1ccc2c(c1Oc1cc(F)ccc1Cl)N(C)C(=O)[C@H](NC(N)=O)C2` [Example 76, ((3R)-8-(2-chloro-5-fluorophenoxy)-7-ethyl-1-methyl-2-oxo-1,2,3,4-tetrahydroquinolin-3-yl)urea], < 500 nM; for `CN1C(=O)[C@H](NC(N)=O)Cc2ccc(Cl)c(Oc3ccccc3C(F)F)c21` [Example 27, ((3R)-7-chloro-8-(2-(difluoromethyl)phenoxy)-1-methyl-2-oxo-1,2,3,4-tetrahydroquinolin-3-yl)urea], < 500 nM.
For `CN1C(=O)[C@H](NC(N)=O)Cc2cccc(Oc3cc(F)c(F)cc3Cl)c21` [Example 35, ((3R)-8-(2-chloro-4,5-difluorophenoxy)-1-methyl-2-oxo-1,2,3,4-tetrahydroquinolin-3-yl)urea] the value was < 500 nM; for `Cc1ccccc1Cc1c(F)ccc2c1N(C)C(=O)[C@H](NC(N)=O)C2` [Example 63, ((3R)-7-fluoro-1-methyl-8-((2-methylphenyl)methyl)-2-oxo-1,2,3,4-tetrahydroquinolin-3-yl)urea], < 500 nM.
For the molecule `CN1C(=O)[C@H](NC(N)=O)Cc2ccc(C(F)F)c(Oc3cc(F)ccc3Cl)c21` [Example 72, ((3R)-8-(2-chloro-5-fluorophenoxy)-7-(difluoromethyl)-1-methyl-2-oxo-1,2,3,4-tetrahydroquinolin-3-yl)urea], the IC50 is < 500 nM.
For `CN1C(=O)[C@H](NC(N)=O)Cc2ccc(Cl)c(Oc3ccccc3Cl)c21` [Example 22, ((3R)-7-chloro-8-(2-chlorophenoxy)-1-methyl-2-oxo-1,2,3,4-tetrahydroquinolin-3-yl)urea], the IC50 is < 500 nM.
On to `CN1C(=O)C(NC(N)=O)Cc2ccc(F)c(Oc3ccccc3)c21` (stereo not shown) [Example 7], for which the half-maximal inhibitory concentration (IC50) lay within 500 to 3000 nM.
As for `CN1C(=O)[C@H](NC(N)=O)Cc2ccc(Cl)c(Cc3cccc(F)c3)c21` [Example 65], the IC50 was 500 to 3000 nM.
For `Cc1ccc(F)cc1Cc1cccc2c1N(C)C(=O)[C@H](NC(N)=O)C2` [Example 68, ((3R)-8-((5-fluoro-2-methylphenyl)methyl)-1-methyl-2-oxo-1,2,3,4-tetrahydroquinolin-3-yl)urea] the value was < 500 nM; for `Cc1ccccc1Oc1cccc2c1N(C)C(=O)[C@H](NC(N)=O)C2` [Example 47, ((3R)-1-methyl-8-(2-methylphenoxy)-2-oxo-1,2,3,4-tetrahydroquinolin-3-yl)urea], < 500 nM.
`CC(C)c1ccccc1Oc1cccc2c1N(C)C(=O)[C@H](NC(N)=O)C2` [Example 17, ((3R)-1-methyl-2-oxo-8-(2-(propan-2-yl)phenoxy)-1,2,3,4-tetrahydroquinolin-3-yl)urea] yielded an IC50 of 500 to 3000 nM.
On to `Cc1ccc2c(c1Oc1ccccc1F)N(C)C(=O)[C@H](NC(N)=O)C2` [Example 45, ((3R)-8-(2-fluorophenoxy)-1,7-dimethyl-2-oxo-1,2,3,4-tetrahydroquinolin-3-yl)urea], for which the IC50 was < 500 nM.
The value for `CN1C(=O)C(NC(N)=O)Cc2cccc(Oc3cccc(F)c3)c21` (stereo not shown) [Example 4, (8-(3-fluorophenoxy)-1-methyl-2-oxo-1,2,3,4-tetrahydroquinolin-3-yl)urea] was 3000 to 30000 nM; that for `CC(c1ccccc1Cl)c1cccc2c1N(C)C(=O)[C@H](NC(N)=O)C2` (stereo partly drawn) [Example 77, ((3R)-8-(1-(2-chlorophenyl)ethyl)-1-methyl-2-oxo-1,2,3,4-tetrahydroquinolin-3-yl)urea] was < 500 nM; that for `Cc1ccc(F)cc1Oc1cccc2c1N(C)C(=O)[C@H](NC(N)=O)C2` [Example 48, ((3R)-8-(5-fluoro-2-methylphenoxy)-1-methyl-2-oxo-1,2,3,4-tetrahydroquinolin-3-yl)urea] was < 500 nM.
Regarding `CCN1C(=O)[C@H](NC(N)=O)Cc2cccc(Oc3ccccc3Cl)c21` [Example 34, ((3R)-8-(2-chlorophenoxy)-1-ethyl-2-oxo-1,2,3,4-tetrahydroquinolin-3-yl)urea], the IC50 is < 500 nM.
For `Cc1ccc2c(c1Cc1cccc(F)c1)N(C)C(=O)[C@H](NC(N)=O)C2` [Example 67] the value was 3000 to 30000 nM; for `CN1C(=O)[C@H](NC(N)=O)Cc2ccc(C(F)(F)F)c(Oc3ccccc3F)c21` [Example 49, ((3R)-8-(2-fluorophenoxy)-1-methyl-2-oxo-7-(trifluoromethyl)-1,2,3,4-tetrahydroquinolin-3-yl)urea], < 500 nM.
The value for `CN1C(=O)[C@H](NC(N)=O)Cc2ccc(CF)c(Oc3cc(F)ccc3Cl)c21` [Example 73, ((3R)-8-(2-chloro-5-fluorophenoxy)-7-(fluoromethyl)-1-methyl-2-oxo-1,2,3,4-tetrahydroquinolin-3-yl)urea] was < 500 nM; that for `CN1C(=O)[C@H](NC(N)=O)Cc2cccc(Cc3cc(F)ccc3Cl)c21` [Example 52] was < 500 nM; that for `COc1cccc(Oc2c(Cl)ccc3c2N(C)C(=O)[C@H](NC(N)=O)C3)c1` [Example 25] was 500 to 3000 nM.
On to `Cc1ccc2c(c1Oc1cccc(F)c1)N(C)C(=O)[C@H](NC(N)=O)C2` [Example 46, ((3R)-8-(3-fluorophenoxy)-1,7-dimethyl-2-oxo-1,2,3,4-tetrahydroquinolin-3-yl)urea], for which the IC50 was < 500 nM.
The value for `CN1C(=O)[C@H](NC(N)=O)Cc2ccc(Cl)c(Cc3ccccc3Cl)c21` [Example 62, ((3R)-7-chloro-8-((2-chlorophenyl)methyl)-1-methyl-2-oxo-1,2,3,4-tetrahydroquinolin-3-yl)urea] was < 500 nM.
